Values quoted from earlier work as cited in patent US20110237832A1, “SYNTHESIS OF HDAC INHIBITORS: TRICHOSTATIN A AND ANALOGUES” (University of Notre Dame du Lac, priority 2010, published 2011).

Test system: HDACs
Conditions: read-out: inhibits the activity of HDACs, IC50 value; in human T cells

IC50: 70 nM
SMILES: CC(/C=C/C(=O)NO)=C\[C@@H](C)C(=O)c1ccc(N(C)C)cc1 [TSA, (+)-Trichostatin A]
